This is an account of results in patent publication US11596692B1 (Incyte Corporation, priority 2018, dated 2023).

Like-named read-outs stand apart in the source and are kept apart here.

Assay [1] has as its system IRF3 activation in PD-L1 high HEK293T STING reporter cell line. Nature of the assay: IRF3 activation in HEK293T STING reporter cells, high PD-L1. Conditions: for EC50: 20 hours; for Potency shift: with compound P27 (1 μM) versus no competition. In kind it is cell-based, human. The protocol: (§1) HEK293T STING reporter cell line was purchased from Invivogen and expressed low level of PD-L1. This cell line was then engineered at Incyte Research Institute to overexpress human PD-L1. Both PD-L1 high and PD-L1 low HEK293T cell lines were plated at 100,000 cells/100 μL/well in 10% fetal calf serum-containing DMEM culture medium in a 96-well flat bottom plate. Serial dilutions of PD-L1 small molecule-conjugated STING agonists were then added to the corresponding wells, and incubated for 20 hours at 37° C. In a competition study setting, 1 μM of a PD-L1 small molecule was added in the corresponding wells to compete with the binding of PD-L1 small molecule-conjugated STING agonists. At the end of the incubation, the culture supernatants were carefully removed from each well, and the amount of IRF3 activation was determined by adding Quanti-Blue substrate in accordance with the manufacturer's protocol.
(§2) 293T-Dual hSTING-R232 (ISG/KI-IFNb) cells that were generated from 293T-Dual Null (ISG/KI-IFNb) cells by stable transfection of the R232 isoform of human STING were purchased from Invivogen (Invivogen #293d-r232).
(§3) This cell line expresses an ISRE-inducible SEAP (secreted embryonic alkaline phosphatase) reporter construct, which monitors the activation of interferon regulatory factor (IRF) and its binding to ISRE (IFN-stimulated response elements). These reporter cells express low level of PD-L1. Human PD-L1 was then overexpressed in these cells through stable transfection.
(§4) These 293T-Dual hSTING-R232 reporter cells as well as293T-Dual hSTING-R232 reporter cells overexpressing huPD-L1 were treated with various concentrations of STING compounds for 20 hours. After 20 hours, interferon regulatory factor (IRF) activity was assessed by measuring SEAP levels in the supernatant using QUNTI-Blue. EC50 values were generated by curve fit in Prism software.

For assay [2], the system named is IRF3 activation in PD-L1 low HEK293T STING reporter cell line. Nature of the assay: IRF3 activation in HEK293T STING reporter cells, low PD-L1. Conditions: 20 hours, read-out: IRF Activation EC50 (nM), Low PD-L1. The class given is cell-based, human. The protocol:
as §1, §2, §3, §4

Assay [3] addresses T1, PD-L1 (Homo sapiens (Human), UniProt Q9NZQ7). Nature of the assay: PD-L1 surface levels on HEK293T STING reporter cells, high PD-L1. The class given is cell-based. The protocol: To determine PD-L1 expression on HEK cells after treatment of PD-L1-small molecule conjugated STING agonists, cells were harvested at 20 hours post-treatment. Single cell suspensions were then stained with phycoerythrin-conjugated anti-PD-L1 antibody (BD Bioscience), and the PD-L1 expression were then analyzed by flow cytometry. Mean fluorescence intensity was used as the relative level of surface PD-L1 expression on cells (FIG. 1 and Table 6).
Also, cells were stained with PE-conjugated anti-human PD-L1 antibody to determine surface PD-L1 expression. Cell acquisition was performed on BD LSRFortessa X-20 (BD Biosciences). Data was analyzed using FlowJo software. IC50 values were calculated using Prism Software.

Assay [4] concerns the target T1, PD-L1. The assay is described as follows: Indirect whole blood PD-L1 internalization assay. The class given is cell-based. Conditions: interferon γ, 18 hours, CD14+ gated. The protocol: To determine PD-L1 internalization in human whole blood, normal human blood (Biological Specialty Corp, Colmar. Pa.) was incubated in the presence or absence of a concentration range of test compounds and 1 ng/ml human interferon γ (R&D Systems Inc. Minn. Minn.) in a 96 well round bottom plate (Corning, Corning, N.Y.) for 18 hours at 37° C. Blood was then transferred into 96 well “2 ml Assay Block” (Corning, Corning N.Y.) and stained with PD-L1 (MIH1, eBioscience; or BD Biosciences San Jose, Calif.), CD14 (Life Technologies, Carlsbad, Calif.) for 30 minutes in the dark at room temperature. Whole Blood/red cells were lysed/fixed (lysis buffer BD Biosciences) for 5 minutes at 37° C. in dark and then centrifuged at 1600 RPM for 5 minutes and cells were transferred into 96 well round bottom plates (Corning). Cells were gated on CD14+ (BD Biosciences) and PD-L1 expression determined by mean fluorescence intensity (MFI) (BD LSRFortessa™ X-20). IC50 determination was performed by fitting the curve of compound percent inhibition versus the log of the compound concentration using the GraphPad Prism 7.0 software.

The subject of a further assay is IRF3. The assay is described as follows: IRF3 activation assay in THP-1 Dual cells. In kind it is cell-based. Conditions: Homo sapiens, read-out: THP1 IRF3 EC50. The method in brief: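 THP-1 Dual cells (100,000/well) were treated with serially diluted compound for 24 h at 37° C, 5% CO2. IRF3 reporter activity in supernatant was read with QUANTI-Blue as absorbance at 620-655 nm after 2 h, with untreated cells as negative control. EC50 came from fitting percent control activity against log concentration.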

[5] abbreviates: high PD-L1 cells, read-out: IRF Activation EC50 (nM), High PD-L1.
[6] abbreviates: no competition, read-out: IRF Activation EC50 (nM), No competition.
Setting [7] is: read-out: IRF Activation EC50 (nM), With compound P27 (1 μM), competition with compound P27 1 μM.

T1 sequence (Q9NZQ7 19-290): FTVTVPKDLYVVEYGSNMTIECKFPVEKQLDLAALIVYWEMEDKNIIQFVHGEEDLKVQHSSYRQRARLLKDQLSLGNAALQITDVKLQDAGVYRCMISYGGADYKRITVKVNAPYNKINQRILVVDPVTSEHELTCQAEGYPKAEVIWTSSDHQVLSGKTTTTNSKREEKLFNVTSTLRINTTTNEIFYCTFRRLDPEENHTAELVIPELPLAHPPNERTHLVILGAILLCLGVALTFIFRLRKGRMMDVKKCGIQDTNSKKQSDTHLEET

In general, EC50 refers to the concentration needed to bring the measured effect to its halfway point. Regarding `CCn1nc(C)cc1C(=O)Nc1nc2cc(C(N)=O)cc(OC)c2n1C/C=C/Cn1c(NC(=O)c2cc(C)nn2CC)nc2cc(C(N)=O)cc(OCCCNC(=O)CCNC(=O)OCc3ccc(NC(=O)[C@H](CCCNC(N)=O)NC(=O)[C@@H](NC(=O)CCCN4CCc5c(nc(C(=O)Nc6cccc(-c7cccc(NC(=O)c8nc9c(n8C)CCN(CCCC(=O)N[C@@H](CC(=O)O)C(=O)O)C9)c7Cl)c6Cl)n5C)C4)C(C)C)cc3)c21` [Example 3], the EC50 in assay [1] (setting [5]) was less than 50 nM; in assay [1] (setting [6]), less than 50 nM; in assay [1] (setting [7]) it was 200 to 1000 nM; in assay [2], 200 to 1000 nM. For the same compound, the Potency shift in assay [1] was more than 20.

As to `CCn1nc(C)cc1C(=O)Nc1nc2cc(C(N)=O)cc(OC)c2n1C/C=C/Cn1c(NC(=O)c2cc(C)nn2CC)nc2cc(C(N)=O)cc(OCCCNC(=O)CCNC(=O)OCc3ccc(NC(=O)[C@H](CCCNC(N)=O)NC(=O)[C@@H](CC(=O)Cn4cc(CCNC(=O)[C@H](CC(=O)O)NC(=O)[C@H](CC(=O)O)NC(=O)[C@H](CCCNC(=N)N)NC(=O)[C@H](CC(=O)O)NC(=O)CCCN5CCc6c(nc(C(=O)Nc7cccc(-c8cccc(NC(=O)c9nc%10c(n9C)CCN(CCCC(=O)O)C%10)c8Cl)c7Cl)n6C)C5)nn4)C(C)C)cc3)c21` [Example 4], the EC50 in assay [1] (setting [5]) was less than 50 nM; in assay [1] (setting [6]), less than 50 nM; in assay [1] (setting [7]) it was 200 to 1000 nM; in assay [2], 200 to 1000 nM. Besides, the Potency shift in assay [1] was more than 20.

As usually defined, the IC50 is the concentration that gives 50% inhibition. High values mean weaker potency in that assay, low ones greater potency in that assay. Regarding `CCn1nc(C)cc1C(=O)Nc1nc2cc(C(N)=O)cc(OC)c2n1C/C=C/Cn1c(NC(=O)c2cc(C)nn2CC)nc2cc(C(N)=O)cc(OCCCNC(=O)[C@H](CC(=O)O)NC(=O)[C@H](CC(=O)O)NC(=O)[C@H](CCCNC(=N)N)NC(=O)[C@H](CC(=O)O)NC(=O)CCNC(=O)C3CCN(Cc4cc(C#N)c5oc(-c6cccc(-c7cccc(Nc8nc(C(F)F)nc9cc(CN%10CC[C@@H](O)C%10)cnc89)c7C)c6C)nc5c4)CC3)c21` [Example 8], the values for the concentration giving a half-maximal response (EC50) in assay [1] (setting [5]) and in assay [2] were less than 50 nM and 50 to 200 nM, respectively. Also, at PD-L1 [3], the IC50 was in the range of 200 to 1000 nM.

Consider `CCn1nc(C)cc1C(=O)Nc1nc2cc(C(N)=O)cc(OC)c2n1C/C=C/Cn1c(NC(=O)c2cc(C)nn2CC)nc2cc(C(N)=O)cc(OCCCNC(=O)[C@H](CC(=O)O)NC(=O)[C@H](CC(=O)O)NC(=O)[C@H](CC(=O)O)NC(=O)[C@H](CC(=O)O)NC(=O)CCCN3CCc4c(nc(C(=O)Nc5cccc(-c6cccc(NC(=O)c7nc8c(n7C)CCN(CCCC(=O)O)C8)c6Cl)c5Cl)n4C)C3)c21` [Example 12], for which the EC50 in assay [1] (setting [5]) is less than 50 nM; in assay [2], 50 to 200 nM.

Take `Cc1c(NC(=O)c2ccc(CNCCO)cn2)cccc1-c1cccc(NC(=O)c2ccc(CNCCO)cn2)c1Cl` [Example P7]: the IC50 at PD-L1 [4] is less than 100 nM.

As to `Cc1c(-c2nc3cc(CN4CC[C@H](C(=O)O)C4)cc(C#N)c3o2)cccc1-c1cccc(NC(=O)c2nc3c(n2C)CCN(C)C3)c1Cl` [Example P11], the IC50 on PD-L1 [4] is less than 100 nM.

`CCn1nc(C)cc1C(=O)Nc1nc2cc(C(N)=O)cc(OCCCOC(=O)NCCC(=O)O)c2n1C/C=C/Cn1c2nc(-c3cc(C)nn3CC)ncc2c2cc(C(N)=O)cc(OCCOCCOCCC(=O)O)c21` [Example S63, (E)-3-(((3-((5-carbamoyl-1-(4-(6-carbamoyl-8-(2-(2-(2-carboxyethoxy)ethoxy)ethoxy)-2-(1-ethyl-3-methyl-1H-pyrazol-5-yl)-9H-pyrimido[4,5-b]indol-9-yl)but-2-en-1-yl)-2-(1-ethyl-3-methyl-1H-pyrazole-5-carboxamido)-1H-benzo[d]imidazol-7-yl)oxy)propoxy)carbonyl)amino)propanoic acid]: the EC50 in the assay on IRF3 (THP-1, Table 4C) fell in the range of 200 to 500 nM.

Consider `CCn1nc(C)cc1C(=O)Nc1nc2cc(C(N)=O)cc(OCCCNC(=O)CCC(=O)O)c2n1C/C=C/Cn1c2nc(-c3cc(C)nn3CC)ncc2c2cc(C(N)=O)cc(OCCCOC)c21` [Example S64, (E)-4-((3-((5-carbamoyl-1-(4-(6-carbamoyl-2-(1-ethyl-3-methyl-1H-pyrazol-5-yl)-8-(3-methoxypropoxy)-9H-pyrimido[4,5-b]indol-9-yl)but-2-en-1-yl)-2-(1-ethyl-3-methyl-1H-pyrazole-5-carboxamido)-1H-benzo[d]imidazol-7-yl)oxy)propyl)amino)-4-oxobutanoic acid], for which the concentration giving a half-maximal response (EC50) in the assay with IRF3 (THP-1, Table 4C) fell in the range of 50 to 200 nM.

In the case of `CCn1nc(C)cc1-c1ncc2c3cc(C(N)=O)cc(OCCCO)c3n(C/C=C/Cn3c4nc(-c5cc(C)nn5CC)ncc4c4cc(C(N)=O)cc(OCCCO)c43)c2n1` [Example S65, (E)-9,9′-(but-2-ene-1,4-diyl)bis(2-(1-ethyl-3-methyl-1H-pyrazol-5-yl)-8-(3-hydroxypropoxy)-9H-pyrimido[4,5-b]indole-6-carboxamide)], in the assay on IRF3 (THP-1, Table 4A), the EC50 was not above 100 nM.

Regarding `CCn1nc(C)cc1C(=O)Nc1nc2cc(C(N)=O)cc(OCCCOC(=O)NCCC(=O)O)c2n1C/C=C/Cn1c(NC(=O)c2cc(C)nn2CC)nc2cc(C(N)=O)c3ccoc3c21` [Example S66, (E)-3-(((3-((5-carbamoyl-1-(4-(5-carbamoyl-2-(1-ethyl-3-methyl-1H-pyrazole-5-carboxamido)-1H-benzofuro[6,7-d]imidazol-1-yl)but-2-en-1-yl)-2-(1-ethyl-3-methyl-1H-pyrazole-5-carboxamido)-1H-benzo[d]imidazol-7-yl)oxy)propoxy)carbonyl)amino)propanoic acid], the half-maximal effective concentration (EC50) in the assay with IRF3 (THP-1, Table 4A) was not above 100 nM.

Consider `CCn1nc(C)cc1C(=O)Nc1nc2cc(C(N)=O)c3ccoc3c2n1C/C=C/Cn1c2nc(-c3cc(C)nn3CC)ncc2c2cc(C(N)=O)cc(OC)c21` [Example S67, (E)-1-(4-(6-carbamoyl-2-(1-ethyl-3-methyl-1H-pyrazol-5-yl)-8-methoxy-9H-pyrimido[4,5-b]indol-9-yl)but-2-en-1-yl)-2-(1-ethyl-3-methyl-1H-pyrazole-5-carboxamido)-1H-benzofuro[6,7-d]imidazole-5-carboxamide], for which the EC50 with IRF3 (THP-1, Table 4A) is not above 100 nM.

Consider `CCn1nc(C)cc1C(=O)Nc1nc2cc(C(N)=O)c3ccoc3c2n1C/C=C/Cn1c2nc(-c3cc(C)nn3CC)ncc2c2cc(C(N)=O)cc(OCCCOC)c21` [Example S68, (E)-1-(4-(6-carbamoyl-2-(1-ethyl-3-methyl-1H-pyrazol-5-yl)-8-(3-methoxypropoxy)-9H-pyrimido[4,5-b]indol-9-yl)but-2-en-1-yl)-2-(1-ethyl-3-methyl-1H-pyrazole-5-carboxamido)-1H-benzofuro[6,7-d]imidazole-5-carboxamide], for which the 50% effective concentration (EC50) in the assay on IRF3 (THP-1, Table 4A) is not above 100 nM.

As to `CCn1nc(C)cc1C(=O)Nc1nc2cc(C(N)=O)c3ccoc3c2n1C/C=C/Cn1c2nc(-c3cc(C)nn3CC)ncc2c2cc(C(N)=O)cc(OCCCO)c21` [Example S69, (E)-1-(4-(6-carbamoyl-2-(1-ethyl-3-methyl-1H-pyrazol-5-yl)-8-(3-hydroxypropoxy)-9H-pyrimido[4,5-b]indol-9-yl)but-2-en-1-yl)-2-(1-ethyl-3-methyl-1H-pyrazole-5-carboxamido)-1H-benzofuro[6,7-d]imidazole-5-carboxamide], the EC50 in the assay on IRF3 (THP-1, Table 4A) was not above 100 nM.
